The values below come from ChEMBL document CHEMBL4043162, “Synthesis of novel flavonoid alkaloids as α-glucosidase inhibitors” (Bioorg Med Chem, 2017).

The source made the active and inactive calls. The calls are words filed in the database; no cut-off is given here. Where only a bound is given, the exact number is not on record here.

Assay [1] in a line: Inhibition of Saccharomyces cerevisiae alpha-glucosidase pre-incubated for 15 mins before p-nitrophenyl-alpha-D-glucopyranoside substrate addition and measured after 30 mins by UV spectrometry.
For a further assay, the system named is Saccharomyces cerevisiae. In words: Non-competitive inhibition of Saccharomyces cerevisiae alpha-glucosidase pre-incubated for 15 mins before p-nitrophenyl-alpha-D-glucopyranoside substrate addition and measured after 30 mins by UV spectrometry based Lineweaver-Burk plot.
Assay [2] is described as follows: Non-competitive inhibition of Saccharomyces cerevisiae alpha-glucosidase pre-incubated for 15 mins before p-nitrophenyl-alpha-D-glucopyranoside substrate addition and measured after 30 mins by UV spectrometry based Dixon plot.

Regarding `O=c1cc(-c2ccccc2)oc2cc(O)c(C3CCCCN3)c(O)c12` (configuration not stated), in assay [1], the IC50 was more than 500 µM.

Turning to `Oc1ccc(C2CCc3c(O)cc(O)c(C4CCCCN4)c3O2)cc1` (configuration not stated), the IC50 in assay [1] was more than 500 µM.

In turn, `O=c1cc(-c2ccccc2)oc2c(CN3CCN(CCO)CC3)c(O)cc(O)c12` showed a half-maximal inhibitory concentration (IC50) in assay [1] of more than 500 µM.

`O=c1cc(-c2ccccc2)oc2c(C3CCCCN3)c(O)cc(O)c12` (configuration not stated): in assay [1], the IC50 was more than 500 µM.

For `COc1ccc(C2CC(=O)c3c(cc(O)c(C4CCCCN4)c3O)O2)cc1O` (configuration not stated), the IC50 in assay [1] is more than 500 µM.

Consider `CCOC(=O)N1CCN(Cc2c(O)cc3c(c2O)C(=O)CC(c2ccc(O)cc2)O3)CC1` (configuration not stated), for which the IC50 in assay [1] worked out at 65.1 µM. That is a double-digit micromolar value.

`COc1ccc(-c2coc3c(CN4CCCCC4)c(O)ccc3c2=O)cc1` came in with a concentration for half-maximal inhibition (IC50) in assay [1] of more than 500 µM.

For `CCOC(=O)c1ccc(N2CCN(Cc3c(O)cc4c(c3O)C(=O)CC(c3ccc(O)cc3)O4)CC2)cc1` (configuration not stated), in the assay with Saccharomyces cerevisiae, the inhibition result was “Active”. Moreover, it took 4.1 µM to reach half-maximal inhibition in assay [1] (IC50). Further, the affinity in assay [2], expressed as Ki, was 13.2 µM.

Compound `O=C1CC(c2ccc(O)cc2)Oc2cc(O)c(CN3CCN(CCO)CC3)c(O)c21` (configuration not stated) had an IC50 in assay [1] of 521 µM.

With `O=C1CC(c2ccc(O)cc2)Oc2cc(O)c(CN3CCCCC3)c(O)c21` (configuration not stated), the IC50 in assay [1] is 82.8 µM. Against the preceding compound, the IC50 is about 6.3-fold lower.

The compound `O=c1cc(-c2ccccc2)oc2cc(O)c(CN3CCOCC3)c(O)c12` yielded an IC50 in assay [1] of more than 500 µM.

In the case of `CCOC(=O)N1CCN(Cc2c(O)cc3oc(-c4ccccc4)cc(=O)c3c2O)CC1`, in assay [1], the IC50 was more than 500 µM.

The compound `O=c1cc(-c2ccccc2)oc2cc(O)c(CN3CCCCC3)c(O)c12` returned an IC50 in assay [1] of more than 500 µM.

As for `O=C1CC(c2ccc(O)cc2)Oc2cc(O)c(CN3CCOCC3)c(O)c21` (configuration not stated), in assay [1], the IC50 came out at 202 µM.

In assay [1], `O=c1cc(-c2ccccc2)oc2cc(O)c(CN3CCN(CCO)CC3)c(O)c12` gave an IC50 of more than 500 µM.

Consider `Oc1ccc(C2CCc3c(cc(O)c(C4CCCCN4)c3O)O2)cc1` (configuration not stated), for which the IC50 in assay [1] was more than 500 µM.

As for `O=C1CC(c2ccc(O)cc2)Oc2cc(O)c(CN3CCc4ccccc4C3)c(O)c21` (configuration not stated), the inhibition entry with Saccharomyces cerevisiae is “Active”. Further, in assay [1], half-maximal inhibition (IC50) required 23.4 µM. The inhibition constant Ki in assay [2] turned out to be 37.8 µM.

`O=C1c2c(cc(O)c(C3CCCCN3)c2O)OC(c2ccc(O)c(O)c2)C1O` (configuration not stated) came in with an IC50 in assay [1] of more than 500 µM.

Turning to `O=c1cc(-c2ccccc2)oc2cc(O)c(CN3CCc4ccccc4C3)c(O)c12`, the IC50 in assay [1] was more than 500 µM.

As for `O=C1CC(c2ccc(O)cc2)Oc2cc(O)c(C3CCCCN3)c(O)c21` (configuration not stated), in assay [1], the concentration for half-maximal inhibition (IC50) turned out to be 249 µM.

`O=c1cc(-c2ccc(O)cc2)oc2cc(O)c(C3CCCCN3)c(O)c12` (configuration not stated): in assay [1], the IC50 came out at 293 µM.

For `CCN(CC)Cc1c(O)cc2oc(-c3ccccc3)cc(=O)c2c1O`, the IC50 in assay [1] was found to be 217 µM.

On to `CCOC(=O)N1CCN(Cc2c(O)c(CN3CCN(C(=O)OCC)CC3)c3oc(-c4ccccc4)cc(=O)c3c2O)CC1`, for which the IC50 in assay [1] is more than 500 µM.

As usually defined, the IC50 is the concentration needed to halve the response being measured. Higher therefore signals weaker potency. As a reminder, the Ki is a measure of affinity in units of concentration, obtained from inhibition or displacement. A low value points to higher affinity.
